Patent publication US8410112B2, “Compounds useful as inhibitors of ATR kinase” (Vertex Pharmaceuticals Incorporated, priority 2008, dated 2013)

target: T1, full-length ATR (Homo sapiens, UniProt Q13535); test: ATR Inhibition Assay (radioactive-phosphate incorporation); format: biochemical; conditions: Ki(app); 5 nM full-length ATR, 10 μM ATP, 800 μM target peptide, 25° C.
T1 construct: in the presence of 5 nM full-length ATR
Outline: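 Buffer was 50 mM Tris/HCl pH 7.5, 10 mM MgCl2, 1 mM DTT, with 5 nM enzyme, 10 μM [γ-33P]ATP and 800 μM target peptide at 25 °C. Compound was pre-incubated 10 min before ATP start, and the reaction was stopped after 24 h. Phosphocellulose filter capture; Ki(app) came from non-linear regression of background-corrected initial rates.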

T1 sequence (Q13535 whole entry): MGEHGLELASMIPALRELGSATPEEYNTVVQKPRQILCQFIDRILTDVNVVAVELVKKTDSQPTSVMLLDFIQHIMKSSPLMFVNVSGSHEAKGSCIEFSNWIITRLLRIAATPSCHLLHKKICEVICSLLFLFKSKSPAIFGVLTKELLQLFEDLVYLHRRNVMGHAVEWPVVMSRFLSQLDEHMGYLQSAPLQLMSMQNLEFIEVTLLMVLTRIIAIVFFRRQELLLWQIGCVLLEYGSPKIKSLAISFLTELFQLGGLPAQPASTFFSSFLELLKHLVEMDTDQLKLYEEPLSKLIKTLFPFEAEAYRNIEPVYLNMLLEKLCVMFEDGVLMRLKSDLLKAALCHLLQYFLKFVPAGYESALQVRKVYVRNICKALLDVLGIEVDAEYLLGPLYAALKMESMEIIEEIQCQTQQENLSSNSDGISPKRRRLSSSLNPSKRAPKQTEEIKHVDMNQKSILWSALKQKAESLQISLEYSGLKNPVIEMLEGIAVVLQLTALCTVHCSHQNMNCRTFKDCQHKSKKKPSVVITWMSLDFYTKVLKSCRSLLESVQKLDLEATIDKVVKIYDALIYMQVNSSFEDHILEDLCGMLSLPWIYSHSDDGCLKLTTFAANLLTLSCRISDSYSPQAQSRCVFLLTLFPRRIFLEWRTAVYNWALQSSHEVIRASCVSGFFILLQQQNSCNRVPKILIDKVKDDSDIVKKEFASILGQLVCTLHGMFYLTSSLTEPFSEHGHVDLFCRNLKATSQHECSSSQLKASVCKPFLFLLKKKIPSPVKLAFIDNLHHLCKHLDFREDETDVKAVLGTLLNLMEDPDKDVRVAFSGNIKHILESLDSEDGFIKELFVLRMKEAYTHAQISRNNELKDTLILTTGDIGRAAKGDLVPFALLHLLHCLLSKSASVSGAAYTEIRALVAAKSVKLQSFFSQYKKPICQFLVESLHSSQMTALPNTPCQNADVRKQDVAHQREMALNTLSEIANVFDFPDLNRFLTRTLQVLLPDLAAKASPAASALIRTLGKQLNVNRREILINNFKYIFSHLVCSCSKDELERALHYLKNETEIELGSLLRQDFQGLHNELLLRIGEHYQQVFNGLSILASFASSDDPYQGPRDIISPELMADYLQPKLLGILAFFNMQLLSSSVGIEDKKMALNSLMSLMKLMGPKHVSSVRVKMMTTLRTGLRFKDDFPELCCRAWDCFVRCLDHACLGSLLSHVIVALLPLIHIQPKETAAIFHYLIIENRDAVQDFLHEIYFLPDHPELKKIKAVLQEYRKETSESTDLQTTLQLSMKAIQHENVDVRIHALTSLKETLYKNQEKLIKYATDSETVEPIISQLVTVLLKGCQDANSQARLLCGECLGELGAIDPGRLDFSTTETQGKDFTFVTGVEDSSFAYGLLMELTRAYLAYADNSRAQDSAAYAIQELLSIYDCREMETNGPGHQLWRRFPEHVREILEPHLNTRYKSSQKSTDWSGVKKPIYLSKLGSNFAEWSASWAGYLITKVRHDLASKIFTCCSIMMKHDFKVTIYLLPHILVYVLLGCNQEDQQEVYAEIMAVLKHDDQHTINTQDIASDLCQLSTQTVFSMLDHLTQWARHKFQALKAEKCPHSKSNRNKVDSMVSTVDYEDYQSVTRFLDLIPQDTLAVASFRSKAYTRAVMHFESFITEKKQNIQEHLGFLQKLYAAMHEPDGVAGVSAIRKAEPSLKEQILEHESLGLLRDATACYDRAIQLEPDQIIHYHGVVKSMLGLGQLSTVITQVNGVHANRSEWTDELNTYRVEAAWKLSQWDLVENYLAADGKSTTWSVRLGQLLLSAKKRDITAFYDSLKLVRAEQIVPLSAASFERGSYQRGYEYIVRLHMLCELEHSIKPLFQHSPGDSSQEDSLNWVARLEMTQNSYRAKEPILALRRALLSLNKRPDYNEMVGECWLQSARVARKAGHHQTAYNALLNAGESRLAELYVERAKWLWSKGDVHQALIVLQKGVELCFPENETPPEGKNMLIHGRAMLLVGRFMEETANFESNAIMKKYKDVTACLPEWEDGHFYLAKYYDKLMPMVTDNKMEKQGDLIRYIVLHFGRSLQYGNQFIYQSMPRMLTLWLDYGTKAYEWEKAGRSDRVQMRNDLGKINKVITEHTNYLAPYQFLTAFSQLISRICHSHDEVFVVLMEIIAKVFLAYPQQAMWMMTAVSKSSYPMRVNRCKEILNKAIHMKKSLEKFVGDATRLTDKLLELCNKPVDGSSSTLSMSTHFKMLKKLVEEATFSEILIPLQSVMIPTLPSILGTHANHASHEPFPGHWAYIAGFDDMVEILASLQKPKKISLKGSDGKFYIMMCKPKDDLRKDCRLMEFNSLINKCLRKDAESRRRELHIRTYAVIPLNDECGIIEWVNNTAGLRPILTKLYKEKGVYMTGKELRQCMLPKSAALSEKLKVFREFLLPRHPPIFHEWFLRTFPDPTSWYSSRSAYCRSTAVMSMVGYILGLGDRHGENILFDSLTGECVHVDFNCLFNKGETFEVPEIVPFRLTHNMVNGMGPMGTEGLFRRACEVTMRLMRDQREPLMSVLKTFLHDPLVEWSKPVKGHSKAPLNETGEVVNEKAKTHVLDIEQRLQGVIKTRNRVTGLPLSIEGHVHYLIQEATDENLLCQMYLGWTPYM

SMILES	Ki [nM]
CCS(=O)(=O)N1CC2CN(c3cnc(N)c(-c4nnc(-c5ccccc5)o4)n3)CC2C1 (stereo not shown) [Compound I-305, 5-(2-ethylsulfonyl-1,3,3a,4,6,6a-hexahydropyrrolo[3,4-c]pyrrol-5-yl)-3-(5-phenyl-1,3,4-oxadiazol-2-yl)pyrazin-2-amine]	100 to 1000
Nc1ncc(N2CCN(CCO)CC2)nc1-c1nnc(-c2ccccc2)o1 [Compound I-306, 2-[4-[5-amino-6-(5-phenyl-1,3,4-oxadiazol-2-yl)pyrazin-2-yl]piperazin-1-yl]ethanol]	1000 to 10000
CCS(=O)(=O)N1CC=C(c2cnc(N)c(-c3noc(-c4ccccc4)n3)n2)CC1 [Compound I-307, 5-(1-ethylsulfonyl-3,6-dihydro-2H-pyridin-4-yl)-3-(5-phenyl-1,2,4-oxadiazol-3-yl)pyrazin-2-amine]	100 to 1000
CCS(=O)(=O)N1CCN(c2cnc(N)c(-c3nc4ccccc4n3-c3ccccc3)n2)CC1 [Compound I-308, 5-(4-ethylsulfonylpiperazin-1-yl)-3-(1-phenylbenzimidazol-2-yl)pyrazin-2-amine]	100 to 1000
CCC(=O)N1CC=C(c2cnc(N)c(-c3nc4ccccc4[nH]3)n2)CC1 [Compound I-309, 1-[4-[5-amino-6-(1H-benzimidazol-2-yl)pyrazin-2-yl]-3,6-dihydro-2H-pyridin-1-yl]propan-1-one]	< 100
Nc1ncc(-n2ccccc2=O)nc1-c1nc2ccccc2[nH]1 [Compound I-310, 1-(5-amino-6-(1H-benzo[d]imidazol-2-yl)pyrazin-2-yl)pyridin-2(1H)-one]	< 100
Nc1ncc(-n2ccc(=O)cc2)nc1-c1nc2ccccc2[nH]1 [Compound I-311, 1-[5-amino-6-(1H-benzimidazol-2-yl)pyrazin-2-yl]pyridin-4-one]	< 100
CCS(=O)(=O)N1CCN(c2cnc(N)c(-c3nnc(-c4cccs4)o3)n2)CC1 [Compound I-312, 5-(4-ethylsulfonylpiperazin-1-yl)-3-[5-(2-thienyl)-1,3,4-oxadiazol-2-yl]pyrazin-2-amine]	100 to 1000
NCCS(=O)(=O)N1CC=C(c2cnc(N)c(-c3nc4ccccc4[nH]3)n2)CC1 [Compound I-313, 5-(1-(2-Aminoethylsulfonyl)-1,2,3,6-tetrahydropyridin-4-yl)-3-(1H-benzo[d]imidazol-2-yl)pyrazin-2-amine]	100 to 1000
CCNC1CC=C(c2cnc(N)c(-c3nnc(-c4ccccc4)o3)n2)CC1 (stereo not shown) [Compound I-314, 5-(4-(Ethylamino)cyclohex-1-enyl)-3-(5-phenyl-1,3,4-oxadiazol-2-yl)pyrazin-2-amine]	100 to 1000
CCC(=O)N1CCN(c2cnc(N)c(-c3nnc(-c4ccc(CNC)cc4)o3)n2)C[C@H]1C [Compound I-315, 1-[(2R)-4-[5-Amino-6-[5-[4-(methylaminomethyl)phenyl]-1,3,4-oxadiazol-2-yl]pyrazin-2-yl]-2-methyl-piperazin-1-yl]propan-1-one]	100 to 1000
CNCc1ccc(-c2nnc(-c3nc(N4CCC(c5ccccc5)C4)cnc3N)o2)cc1 (stereo not shown) [Compound I-316, 3-[5-[4-(Methylaminomethyl)phenyl]-1,3,4-oxadiazol-2-yl]-5-(3-phenylpyrrolidin-1-yl)pyrazin-2-amine]	< 100
CNCc1ccc(-c2nnc(-c3nc(N4CC[C@H](CNC(C)=O)C4)cnc3N)o2)cc1 [Compound I-317, N-[[(3R)-1-[5-Amino-6-[5-[4-(methylaminomethyl)phenyl]-1,3,4-oxadiazol-2-yl]pyrazin-2-yl]pyrrolidin-3-yl]methyl]acetamide]	< 100
Nc1ncc(N2C[C@@H]3CCC(=O)[C@@H]3C2)nc1-c1nnc(-c2ccccc2)o1 [Compound I-319, (3aS,6aR)-2-(5-Amino-6-(5-phenyl-1,3,4-oxadiazol-2-yl)pyrazin-2-yl)hexahydrocyclopenta[c]pyrrol-4(5H)-one]	100 to 1000
CNCc1ccc(-c2nnc(-c3nc(N4C[C@H]5CCC(OS(C)(=O)=O)[C@H]5C4)cnc3N)o2)cc1 (stereo partly shown) [Compound I-320]	< 100
CNCc1ccc(-c2nnc(-c3nc(N4Cc5ccccc5C4)cnc3N)o2)cc1 [Compound I-321, 5-Isoindolin-2-yl-3-[5-[4-(methylaminomethyl)phenyl]-1,3,4-oxadiazol-2-yl]pyrazin-2-amine]	1000 to 10000
CCN1CCN(c2cnc(N)c(-c3nnc(-c4ccc(CNC)cc4)o3)n2)CC1 [Compound I-322, 5-(4-Ethylpiperazin-1-yl)-3-[5-[4-(methylaminomethyl)phenyl]-1,3,4-oxadiazol-2-yl]pyrazin-2-amine]	100 to 1000

SMILES	Ki [nM]
CNCc1ccc(-c2nnc(-c3nc(N4CC[C@@H](CNC(C)=O)C4)cnc3N)o2)cc1 [Compound I-323, N-[[(3S)-1-[5-Amino-6-[5-[4-(methylaminomethyl)phenyl]-1,3,4-oxadiazol-2-yl]pyrazin-2-yl]pyrrolidin-3-yl]methyl]acetamide]	< 100
Nc1ncc(C2=CCN(C(=O)CCC(=O)O)CC2)nc1-c1nc2ccccc2[nH]1 [Compound I-324, 4-(4-(5-Amino-6-(1H-benzo[d]imidazol-2-yl)pyrazin-2-yl)-5,6-dihydropyridin-1(2H)-yl)-4-oxobutanoic acid]	100 to 1000
CCS(=O)(=O)N1CCN(c2cnc(N)c(-c3nnc(-c4ccc(CNC)cc4)o3)n2)CC1 [Compound I-325, 5-(4-Ethylsulfonylpiperazin-1-yl)-3-[5-[4-(methylaminomethyl)phenyl]-1,3,4-oxadiazol-2-yl]pyrazin-2-amine]	< 100
CCC(=O)N1CCN(c2cnc(N)c(-c3nnc(-c4ccc(CNC)cc4)o3)n2)C[C@@H]1C(C)C [Compound I-326, 1-[(2S)-4-[5-Amino-6-[5-[4-(methylaminomethyl)phenyl]-1,3,4-oxadiazol-2-yl]pyrazin-2-yl]-2-isopropyl-piperazin-1-yl]propan-1-one]	< 100
CCC(=O)N1CCN(c2cnc(N)c(-c3nnc(-c4ccc(CNC)cc4)o3)n2)CC1 [Compound I-327, 1-[4-[5-Amino-6-[5-[4-(methylaminomethyl)phenyl]-1,3,4-oxadiazol-2-yl]pyrazin-2-yl]piperazin-1-yl]propan-1-one]	< 100
CCS(=O)(=O)N1CCN(c2cnc(N)c(-c3nnc(-c4ccc(CNC)cc4)o3)n2)CC1(C)C [Compound I-328, 5-(4-Ethylsulfonyl-3,3-dimethyl-piperazin-1-yl)-3-[5-[4-(methylaminomethyl)phenyl]-1,3,4-oxadiazol-2-yl]pyrazin-2-amine]	100 to 1000
CCC(=O)N1CCN(c2cnc(N)c(-c3nnc(-c4ccc(CNC)cc4)o3)n2)CC1(C)C [Compound I-329, 1-[4-[5-Amino-6-[5-[4-(methylaminomethyl)phenyl]-1,3,4-oxadiazol-2-yl]pyrazin-2-yl]-2,2-dimethyl-piperazin-1-yl]propan-1-one]	1000 to 10000
CCS(=O)(=O)N1CCC2(CCN(c3cnc(N)c(-c4nnc(-c5ccc(CNC)cc5)o4)n3)C2)C1 (stereo not shown) [Compound I-330, 5-(3-Ethylsulfonyl-3,7-diazaspiro[4.4]nonan-7-yl)-3-[5-[4-(methylaminomethyl)phenyl]-1,3,4-oxadiazol-2-yl]pyrazin-2-amine]	1000 to 10000
NCCCS(=O)(=O)N1CC=C(c2cnc(N)c(-c3nc4ccccc4[nH]3)n2)CC1 [Compound I-331, 5-(1-(3-aminopropylsulfonyl)-1,2,3,6-tetrahydropyridin-4-yl)-3-(1H-benzo[d]imidazol-2-yl)pyrazin-2-amine]	< 100
CCS(=O)(=O)N1CC2CN(c3cnc(N)c(-c4nnc(-c5ccc(CNC)cc5)o4)n3)CC2C1 (stereo not shown) [Compound I-332, 5-(2-Ethylsulfonyl-1,3,3a,4,6,6a-hexahydropyrrolo[3,4-c]pyrrol-5-yl)-3-[5-[4-(methylaminomethyl)phenyl]-1,3,4-oxadiazol-2-yl]pyrazin-2-amine]	1000 to 10000
CCC(=O)N1CCN(c2cnc(N)c(-c3nnc(-c4ccc(CNC)cc4)o3)n2)C[C@H]1C(C)C [Compound I-333, 1-[(2R)-4-[5-Amino-6-[5-[4-(methylaminomethyl)phenyl]-1,3,4-oxadiazol-2-yl]pyrazin-2-yl]-2-isopropyl-piperazin-1-yl]propan-1-one]	100 to 1000
CCC(=O)N1C[C@@H]2C[C@@H]1CN2c1cnc(N)c(-c2nnc(-c3ccc(CNC)cc3)o2)n1 [Compound I-334, 1-[(1S,4R)-2-[5-Amino-6-[5-[4-(methylaminomethyl)phenyl]-1,3,4-oxadiazol-2-yl]pyrazin-2-yl]-2,5-diazabicyclo[2.2.1]heptan-5-yl]propan-1-one]	100 to 1000
CCC(=O)N1CC=C(c2cnc(N)c(-c3nnc(-c4ccc(CNC)cc4)o3)n2)CC1 [Compound I-335, 1-[4-[5-Amino-6-[5-[4-(methylaminomethyl)phenyl]-1,3,4-oxadiazol-2-yl]pyrazin-2-yl]-3,6-dihydro-2H-pyridin-1-yl]propan-1-one]	100 to 1000
CNCc1ccc(-c2nnc(-c3nc(C4=CCC(C)CC4)cnc3N)o2)cc1 (stereo not shown) [Compound I-336, 3-(5-(4-((Methylamino)methyl)phenyl)-1,3,4-oxadiazol-2-yl)-5-(4-methylcyclohex-1-enyl)pyrazin-2-amine]	100 to 1000
CCOC(=O)C1CC1c1cnc(N)c(-c2nnc(-c3ccccc3)o2)n1 (stereo not shown) [Compound I-337, Ethyl 2-(5-amino-6-(5-phenyl-1,3,4-oxadiazol-2-yl)pyrazin-2-yl)cyclopropanecarboxylate]	100 to 1000
NCCC(=O)N1CC=C(c2cnc(N)c(-c3nc4ccccc4[nH]3)n2)CC1 [Compound I-338, 3-amino-1-(4-(5-amino-6-(1H-benzo[d]imidazol-2-yl)pyrazin-2-yl)-5,6-dihydropyridin-1(2H)-yl)propan-1-one]	100 to 1000
CCS(=O)(=O)N1CC=C(c2cnc(N)c(-c3nnc(-c4ccc(CNC)cc4)o3)n2)CC1 [Compound I-339, 5-(1-Ethylsulfonyl-3,6-dihydro-2H-pyridin-4-yl)-3-[5-[4-(methylaminomethyl)phenyl]-1,3,4-oxadiazol-2-yl]pyrazin-2-amine]	100 to 1000
